The record followed here is patent US9801380B2, “Low VOC gibberellin formulations” (Valent BioSciences Corporation, priority 2013, dated 2017).

This data set can be described thus: Stability tests: observation for solubility after mixing. To be noted: 5.95% GA3 TGAI.

Molecules are shown by their SMILES.

Method: The stability tests were performed as follows. The solvent was charged in a 150 mL glass beaker containing a magnetic stir bar. The solvent was warmed on a hot plate while stirring. The polysorbate surfactant was charged when the solvent temperature reached 30 to 38 degrees Celsius. The formulations were mixed until they were solubilized (1 to 4 minutes). Then the GA3 TGAI was added under stirring and the temperature was raised to 38 to 41 degrees Celsius. The heat was discontinued and the formulations were mixed for 30 to 50 minutes. The formulations were then observed for solubility.

With `C=C1C[C@]23C[C@@]1(O)CC[C@H]2[C@@]12C=C[C@H](O)[C@@](C)(C(=O)O1)[C@H]2[C@@H]3C(=O)O` [GA3, gibberellic acid], the “Solubility of GA3 in the formulation” value is reported as “not soluble” (Formulation B (triethyl citrate)); “soluble” (Formulations A and D (PEG 300, PEG 400)).
